Experimental data taken from ChEMBL document CHEMBL1157046, “QSAR modeling of taxane analogues against colon cancer” (Eur J Med Chem, 2010).

system: HT-29; experiment: Cytotoxicity against human HT-29 cells; type: functional, cell-based; details: not given

Point of comparison: `CCC(C)(C)OC(=O)N[C@@H](c1ccccc1)[C@@H](O)C(=O)O[C@H]1C[C@@]2(O)[C@@H](OC(=O)c3ccccc3)[C@@H]3[C@]4(OC(C)=O)CO[C@@H]4C[C@H](O)[C@@]3(C)[C@@H](O)[C@H](OC(C)=O)C(=C1C)C2(C)C`, IC50 0.000776 nM. Against it:
- C/C=C/[C@H](NC(=O)C(C)(C)C)[C@@H](O)C(=O)O[C@@H]1C(C)=C2[C@@H](OC(C)=O)C(=O)[C@@]3(C)[C@H]([C@H](OC(=O)c4ccccc4)[C@@]4(OC(=O)O[C@@H]14)C2(C)C)[C@]1(OC(C)=O)CO[C@@H]1C[C@@H]3O — 3900-fold higher, 3.02 nM
- CC(=O)O[C@@]12CO[C@@H]1C[C@H](O)[C@@]1(C)C(=O)[C@H](O)C3=C(C)[C@@H](OC(=O)[C@H](O)[C@@H](NC(=O)OC(C)(C)C)C(F)(F)F)C[C@@](O)([C@@H](OC(=O)c4cccc(N=[N+]=[N-])c4)[C@H]21)C3(C)C — 910-fold higher, 0.708 nM
- CC(=O)N[C@@H](c1ccccc1)[C@@H](O)C(=O)O[C@H]1C[C@@]2(O)[C@@H](OC(=O)c3ccccc3)[C@@H]3[C@]4(OC(C)=O)CO[C@@H]4C[C@H](O)[C@@]3(C)[C@@H](O)[C@H](OC(C)=O)C(=C1C)C2(C)C — 440-fold higher, 0.339 nM
- CC(=O)O[C@H]1C(=O)[C@@]2(C)[C@H]([C@H](OC(=O)c3ccccc3)[C@]34OC(=O)O[C@H]3[C@H](OC(=O)[C@H](O)[C@H](CC(C)C)NC(=O)C(C)(C)C)C(C)=C1C4(C)C)[C@]1(OC(C)=O)CO[C@@H]1C[C@@H]2O — 1900-fold higher, 1.51 nM
- CC(=O)O[C@@H]1C2=C(C)[C@@H](OC(=O)[C@H](O)[C@@H](NC(=O)OCc3ccccc3)c3ccccc3)C[C@@](O)([C@@H](OC(=O)c3ccccc3)[C@@H]3[C@]4(OC(C)=O)CO[C@@H]4C[C@H](O)[C@@]3(C)[C@H]1O)C2(C)C — 17-fold higher, 0.0135 nM

system: HCT-116; experiment: Cytotoxicity against human HCT116 cells after 72 hrs; type: functional, cell-based; details: HCT-116, 72 h

Point of comparison: `CC(=O)O[C@H]1C(=O)[C@@]2(C)[C@H]([C@H](OC(=O)c3ccccc3)[C@]3(O)C[C@H](OC(=O)[C@H](O)[C@@H](NC(=O)c4ccccc4)c4ccccc4)C(C)=C1C3(C)C)[C@]1(OC(=O)C3CCC3)CO[C@@H]1C[C@@H]2O`, IC50 1.51 nM. Against it:
- CCOC(=O)O[C@@]12CO[C@@H]1C[C@H](O)[C@@]1(C)C(=O)[C@H](OC(C)=O)C3=C(C)[C@@H](OC(=O)[C@H](O)[C@@H](NC(=O)c4ccccc4)c4ccccc4)C[C@@](O)([C@@H](OC(=O)c4ccccc4)[C@H]21)C3(C)C — 1.5-fold lower, 1 nM
- CC(=O)O[C@H]1C(=O)[C@@]2(C)[C@H]([C@H](OC(=O)c3ccccc3)[C@]3(O)C[C@H](OC(=O)[C@H](O)[C@@H](NC(=O)c4ccccc4)c4ccccc4)C(C)=C1C3(C)C)[C@]1(OC(=O)CF)CO[C@@H]1C[C@@H]2O — 4.7-fold higher, 7.08 nM
- COC(=O)O[C@@]12CO[C@@H]1C[C@H](O)[C@@]1(C)C(=O)[C@H](OC(C)=O)C3=C(C)[C@@H](OC(=O)[C@H](O)[C@@H](NC(=O)c4ccccc4)c4ccccc4)C[C@@](O)([C@@H](OC(=O)c4ccccc4)[C@H]21)C3(C)C [BMS-188797] — within 1.5-fold, 2 nM
- CCCCC(=O)O[C@@]12CO[C@@H]1C[C@H](O)[C@@]1(C)C(=O)[C@H](OC(C)=O)C3=C(C)[C@@H](OC(=O)[C@H](O)[C@@H](NC(=O)c4ccccc4)c4ccccc4)C[C@@](O)([C@@H](OC(=O)c4ccccc4)[C@H]21)C3(C)C — within 1.5-fold, 2 nM
- CC(=O)O[C@H]1C(=O)[C@@]2(C)[C@H]([C@H](OC(=O)c3ccccc3)[C@]3(O)C[C@H](OC(=O)[C@H](O)[C@@H](NC(=O)c4ccccc4)c4ccccc4)C(C)=C1C3(C)C)[C@]1(OC(=O)c3ccccc3)CO[C@@H]1C[C@@H]2O — 270-fold higher, 407 nM
- CCCOC(=O)O[C@@]12CO[C@@H]1C[C@H](O)[C@@]1(C)C(=O)[C@H](OC(C)=O)C3=C(C)[C@@H](OC(=O)[C@H](O)[C@@H](NC(=O)c4ccccc4)c4ccccc4)C[C@@](O)([C@@H](OC(=O)c4ccccc4)[C@H]21)C3(C)C — 1.7-fold higher, 2.57 nM
- CCCCCC(=O)O[C@@]12CO[C@@H]1C[C@H](O)[C@@]1(C)C(=O)[C@H](OC(C)=O)C3=C(C)[C@@H](OC(=O)[C@H](O)[C@@H](NC(=O)c4ccccc4)c4ccccc4)C[C@@](O)([C@@H](OC(=O)c4ccccc4)[C@H]21)C3(C)C — 4-fold higher, 6.03 nM
- CC(=O)O[C@H]1C(=O)[C@@]2(C)[C@H]([C@H](OC(=O)c3ccccc3)[C@]3(O)C[C@H](OC(=O)[C@H](O)[C@@H](NC(=O)c4ccccc4)c4ccccc4)C(C)=C1C3(C)C)[C@]1(OC(=O)C3CC3)CO[C@@H]1C[C@@H]2O — 1.5-fold lower, 1 nM
- C/C=C/C(=O)O[C@@]12CO[C@@H]1C[C@H](O)[C@@]1(C)C(=O)[C@H](OC(C)=O)C3=C(C)[C@@H](OC(=O)[C@H](O)[C@@H](NC(=O)c4ccccc4)c4ccccc4)C[C@@](O)([C@@H](OC(=O)c4ccccc4)[C@H]21)C3(C)C — 1.5-fold higher, 2.29 nM
- C=C(C)C(=O)O[C@@]12CO[C@@H]1C[C@H](O)[C@@]1(C)C(=O)[C@H](OC(C)=O)C3=C(C)[C@@H](OC(=O)[C@H](O)[C@@H](NC(=O)c4ccccc4)c4ccccc4)C[C@@](O)([C@@H](OC(=O)c4ccccc4)[C@H]21)C3(C)C — 3-fold higher, 4.47 nM
- CC(=O)O[C@H]1C(=O)[C@@]2(C)[C@H]([C@H](OC(=O)c3ccccc3)[C@]3(O)C[C@H](OC(=O)[C@H](O)[C@@H](NC(=O)c4ccccc4)c4ccccc4)C(C)=C1C3(C)C)[C@]1(OC(=O)c3ccc(F)cc3)CO[C@@H]1C[C@@H]2O — 530-fold higher, 794 nM
- CCCC(=O)O[C@@]12CO[C@@H]1C[C@H](O)[C@@]1(C)C(=O)[C@H](OC(C)=O)C3=C(C)[C@@H](OC(=O)[C@H](O)[C@@H](NC(=O)c4ccccc4)c4ccccc4)C[C@@](O)([C@@H](OC(=O)c4ccccc4)[C@H]21)C3(C)C — within 1.5-fold, 1.1 nM
- CC(=O)O[C@H]1C(=O)[C@@]2(C)[C@H]([C@H](OC(=O)c3ccccc3)[C@]3(O)C[C@H](OC(=O)[C@H](O)[C@@H](NC(=O)c4ccccc4)c4ccccc4)C(C)=C1C3(C)C)[C@]1(OC(=O)n3ccnc3)CO[C@@H]1C[C@@H]2O — 530-fold higher, 794 nM
- CC(=O)O[C@H]1C(=O)[C@@]2(C)[C@H]([C@H](OC(=O)c3ccccc3)[C@]3(O)C[C@H](OC(=O)[C@H](O)[C@@H](NC(=O)c4ccccc4)c4ccccc4)C(C)=C1C3(C)C)[C@]1(OC(=O)C(Cl)(Cl)Cl)CO[C@@H]1C[C@@H]2O — 2.6-fold higher, 3.98 nM
- CCC(=O)O[C@@]12CO[C@@H]1C[C@H](O)[C@@]1(C)C(=O)[C@H](OC(C)=O)C3=C(C)[C@@H](OC(=O)[C@H](O)[C@@H](NC(=O)c4ccccc4)c4ccccc4)C[C@@](O)([C@@H](OC(=O)c4ccccc4)[C@H]21)C3(C)C — within 1.5-fold, 2 nM
- CC(=O)O[C@H]1C(=O)[C@@]2(C)[C@H]([C@H](OC(=O)c3ccccc3)[C@]3(O)C[C@H](OC(=O)[C@H](O)[C@@H](NC(=O)c4ccccc4)c4ccccc4)C(C)=C1C3(C)C)[C@]1(OC(=O)NC3CCC3)CO[C@@H]1C[C@@H]2O — 6-fold higher, 9.12 nM
- CC(=O)O[C@H]1C(=O)[C@@]2(C)[C@H]([C@H](OC(=O)c3ccccc3)[C@]3(O)C[C@H](OC(=O)[C@H](O)[C@@H](NC(=O)c4ccccc4)c4ccccc4)C(C)=C1C3(C)C)[C@]1(OC(=O)C3CCCC3)CO[C@@H]1C[C@@H]2O — within 1.5-fold, 2 nM
- C=CC(=O)O[C@@]12CO[C@@H]1C[C@H](O)[C@@]1(C)C(=O)[C@H](OC(C)=O)C3=C(C)[C@@H](OC(=O)[C@H](O)[C@@H](NC(=O)c4ccccc4)c4ccccc4)C[C@@](O)([C@@H](OC(=O)c4ccccc4)[C@H]21)C3(C)C — 4-fold higher, 6.03 nM
- CC(=O)O[C@H]1C(=O)[C@@]2(C)[C@H]([C@H](OC(=O)c3ccccc3)[C@]3(O)C[C@H](OC(=O)[C@H](O)[C@@H](NC(=O)c4ccccc4)c4ccccc4)C(C)=C1C3(C)C)[C@]1(OC(=O)C(C)C)CO[C@@H]1C[C@@H]2O — 3.3-fold higher, 5.01 nM
